# Laboratory results taken from patent US8487009B2, “1,2-diphenylethene derivatives for treatment of immune diseases” (Glaxo Group Limited, priority 2001, dated 2013).
# Like-named read-outs stand apart in the source and are kept apart here.
# What was measured:
# T-cell proliferation = T-cell proliferation ([3H]thymidine uptake, C57BL/6 responders with mitomycin C treated BALB/C feeder cells); format: cell-based; conditions: murine T-cells, read-out: Concentration that provides 50% inhibition of T-cell proliferation, IC50
# Protocol: T-cell assay is commonly employed as a primary platform for testing of activities that modulate immune and inflammatory activities in many diseases. Assays of antigen non-specific T-cell proliferation and antigen-specific proliferation are often used in the tests.
# (§1) To determine the effect of the inventive compounds on non-specific and specific antigen induced T-cell proliferation, compounds were tested at a range of concentrations as outlined by the following protocol: Murine lymph nodes were removed aseptically and cell suspensions were prepared in RPMI-1640. Single lymphocytes were isolated over Lymphocyte-M by centrifugation at 22° C. and 1800 g for 15 min, and then washed three times (500 g for 5 min at 22° C.). Adherent cells were depleted by cytoadherence to fibronectin-coated plastic culture dish (twice at 37° C. for 45 min). T-cells isolated by incubating cell suspensions in a nylon wool column for 2 h at 37° C. and use for subsequent experiments were greater than 95% viable, as determined by trypan blue exclusion. Feeder cells were prepared by treating BALB/C spleen cells with mitomycin C (50 μg/ml, for 20 min at 37° C.) followed by five times washing using a large volume of Hank's solution. C57BL/6 Responders (2×10^5) was incubated in duplicate with the mitomycin C treated BALB/C feeder cells (2×10^5) in 96-well, round-bottomed, microtitre plates (Costar Laboratories, Worcester, Mass.) with complete medium (RPMI 1640 with 25 mM Hepes and L-glutamine supplemented with […] 2-mercapto-ethanol, 10% fetal cow serum (FCS), 10,000 unit of penicillin, and 10 mg of streptomycin per 100 ml of medium) at 37° C., 5% CO2. After 96 h, the culture wells received [^3H]thymidine ([^3H]TdR; 1 μCi/well) and proliferation was assessed at 16 h by harvesting cells onto glass fiber filter paper and counting in a β-counter.
# IL-2 production = IL-2 production from Con A activated T-cells (ELISA); format: cell-based, murine; conditions: read-out: Inhibitory activity against IL-2 production, IC50
# Protocol: as §1
# (§2) To determine the effect of inventive compounds on IL-2, IL-4 and IFN-γ production from activated T-cells, the following assays were performed using the protocol outlined above for T-cells. The T-cell was activated by concanavalin A (Con A) and incubated, cytokines in the supernatants were assayed by commercial immune-linked immunosorbent assay (ELISA) kits.
# IFN-γ = IFN-γ production from Con A activated T-cells (ELISA); format: cell-based, murine; conditions: read-out: Concentration for 50% of inhibition of IFN-γ, IC50
# Protocol: as §1, §2
# TNF-α production = TNF-α production by macrophage cells (ELISA); format: cell-based; conditions: murine macrophage cells, 24 h; for Effect on TNF-α production, % of control: 10 μM; for activity at 10 µM: Mus musculus, read-out: Effect on TNF-α production, % of control
# Description: (§3) Macrophages are very important components of the host defense system, but they are also involved in the development of tissue injury during inflammation in some human disease. Efficient antagonists can block subsequent symptoms (skin redness, edema, pain and dysfunction) of inflammation. CD86 expression, nitric oxide and TNF-α production are experimental indicators of macrophage function in vivo. CD86 expression by antigen presenting cells, including dendritic cells, macrophages and activated B cells, is necessary for interaction with T-cell CD28, which is necessary for T-cells to be fully activated. Nitric oxide is a potent microbiological macrophage product. TNF-α is a pro-inflammatory cytokine important in recruitment and stimulation of inflammatory cells. The effect of inventive compounds on the TNF-α production by macrophage cells was tested using the following protocol: Murine macrophage cells were lifted from adherent culture and resuspended in 10% FCS in DMEM. Cells (5×10^4/well) were aliquoted into flat bottom, tissue culture-treated microtitre plates and lipolysaccharide, N-acetylcysteine, test compound or vehicle controls were added. The cells were incubated at 37° C., 5% CO2 for 24 h and the culture supernatant removed for TNF-α ELISA, and CD86 expression was determined by FACS analysis on flow cytometer.
# [1] = test system: induced edema in Balb/c mouse; experiment: TPA induced mouse ear edema model; format: in vivo; conditions: single topical administration
# Protocol: Briefly, Balb/c mouse ear edema was induced by phorbol-12-myristate-13-acetate (TPA) by adding 20 ul of 0.01% (w/v) to the right ear of each mouse. Each test compound dissolved in the same vehicle (ethanol) as TPA was applied separately to the right ear of each moue. The mouse ear edema of each test compound was compared with that of the TPA and expressed as % of inhibition.
# [2] = test system: CD86 expression in murine macrophages; experiment: CD86 expression in murine macrophages (FACS); format: cell-based; conditions: 10 μM, 24 h
# Description: as §3
# [3] = test system: histamine release by mast cells; experiment: Histamine release by mast cells derived from mouse bone marrow (hexosamindase activity); format: cell-based; conditions: Mast cell, read-out: Effect on histamine release by mast cells, IC50
# Protocol: Histamine is an important mediator and is involved in a wide range of biological activities, including inflammation and allergy. The activity of representative compounds, against histamine release was tested using a standard mast cell assay (Arquardt, C. et al. 1986. Am Rev Respir Dis 133:1105-1109). The mast cells were derived from mouse bone marrow. The histamine release was measured by the hexosamindase activity.
# [4] = test system: crystal induced neutrophil activation; experiment: Crystal (calcium pyrophosphate dihydrate) induced neutrophil activation, chemoluminescence; format: cell-based, human; conditions: 25 μM
# Protocol: (§4) Neutrophils predominate over other cell types in many variants of acute and chronic inflammatory condition. Effect of the inventive compounds was tested on human neutrophil activation by chemoattractant [N-formyl-methionyl-luecyl-phenylalanine (FMPL)] and crystal (calcium pyrophosphate dihydrate) using an established protocol (Tudan, C. 1999. Biochem. Pharmacol 58:1869-1880).
# (§5) Neutrophils were prepared from freshly collected human citrated whole blood. Briefly, 400 ml of blood were mixed with 80 ml of 4% dextran in Hanks buffered saline solution (HBSS) pH 7.4 and allowed to settle for 1 hour. Plasma was collected continuously and 5 ml applied to 5 ml of Ficoll Paque (Pharmacia) in 15 ml polypropylene tubes. Following centrifugation at 500 g for 30 minutes, the neutrophil pellets were washed free of erythrocytes by 20 seconds of hypotonic shock. Neutrophils were resuspended in HBSS, kept on ice and used for experiments within 3 h. Neutrophil viability and purity was always greater than 90%. Solutions of test compounds were added to neutrophils at 5,000,000 cells per ml under mild vortexing. Cells were incubated for 20 minutes at 33° C. then for 10 minutes at 37° C. before addition to crystals or chemoattractants for neutrophil activation. Chemoluminescence was monitored using an luminometer at 37° C.
# [5] = test system: FMLP induced neutrophil activation; experiment: FMLP induced neutrophil activation, chemoluminescence; format: cell-based; conditions: Homo sapiens, read-out: FMLP induced neutrophil activation, Chemoluminescence (mV), % of control
# Protocol: as §4, §5
SMILES,"IC50 (IL-2 production; Mus musculus, T-cell) [nM]","IC50 (IFN-γ; Mus musculus, T-cell) [nM]",IC50 (T-cell proliferation) [nM],"Effect on CD86 expression in murine macrophages, % of control [2] [%]","IC50 (T-cell proliferation; Mus musculus, T-cell) [nM]",also measured
"CC(C)c1c(O)cc(C(C#N)=Cc2ccccc2)cc1O [2-(3,5-Dihydroxy-4-i-propylphenyl)-3-phenylpropenylnitrile]",–,–,3500,–,–,"IC50 (IL-2 production): 130 nM; IC50 (IFN-γ): 860 nM; Effect on TNF-α production, % of control (TNF-α production): 60%; % inhibition of edema [1]: 85.2%"
CC(C)c1c(O)cc(C=Cc2ccccn2)cc1O.Cl [2-[2-(3.5-Dihydroxy-4-i-propylphenyl)ethenyl]pyridine hydrochloride],–,–,2090,88,–,"Effect on TNF-α production, % of control (TNF-α production): 75%"
"CC(C)c1c(O)cc(C=Cc2cccs2)cc1O [2-i-Propyl-5-(2-thiophene-2-ylethenyl)-1,3-benzenediol]",28,80,–,2,5160,activity at 10 µM (TNF-α production): 50%; IC50 [3]: 18900 nM
"CC(C)c1c(O)cc(C=C(C#N)c2ccccc2)cc1O [3-(3,5-Dihydroxy-4-i-propylphenyl)-2-phenylpropenylnitrile]",–,–,1810,16,–,IC50 (IFN-γ): 710 nM
"CC(=Cc1cc(O)cc(O)c1)c1ccccc1 [5-(2-Methyl-2-phenylethenyl)-1,3-benzenediol]",1790,–,–,90,4650,activity at 10 µM (TNF-α production): 42%
"C=C1/C(=C\C=C2/CCC[C@]3(C)[C@@H]([C@H](C)CCCC(C)(C)O)CC[C@@H]23)C[C@@H](O)C[C@@H]1O [calcitriol, reference compound]",–,–,–,–,–,% inhibition of edema ([1]; 0.01% calcitriol): 31.2%

# More lines, main results first:
"IC50 (IL-2 production; Mus musculus, T-cell) [nM]","IC50 (IFN-γ; Mus musculus, T-cell) [nM]",SMILES,IC50 (T-cell proliferation) [nM],"Effect on CD86 expression in murine macrophages, % of control [2] [%]","IC50 (T-cell proliferation; Mus musculus, T-cell) [nM]",also measured
–,1620,"CC(=Cc1ccccc1)c1cc(O)c(C(C)C)c(O)c1 [5-(1-Methyl-2-phenylethenyl)-2-i-propyl-1,3-benzenediol]",–,0,1490,–
–,1710,"CC(C)c1c(O)cc(C=C(c2ccccc2)c2ccccc2)cc1O [5-(2,2-Diphenylethenyl)-2-i-propyl-1,3-benzenediol]",–,10,–,–
400,–,"CC(=Cc1cc(O)c(C(C)C)c(O)c1)c1ccccc1 [5-(2-Methyl-2-phenylethenyl)-2-i-propyl-1,3-benzenediol]",–,51,1150,"Crystal induced neutrophil activation, chemoluminescence (mV) as % of the control ([4]; time 1 minute): 23%; Crystal induced neutrophil activation, chemoluminescence (mV) as % of the control ([4]; time 2 minutes): 10%; Crystal induced neutrophil activation, chemoluminescence (mV) as % of the control ([4]; time 3 minutes): 7%; Crystal induced neutrophil activation, chemoluminescence (mV) as % of the control ([4]; time 4 minutes): 6%; Crystal induced neutrophil activation, chemoluminescence (mV) as % of the control ([4]; time 5 minutes): 6%; Crystal induced neutrophil activation, chemoluminescence (mV) as % of the control ([4]; time 7 minutes): 16%; Crystal induced neutrophil activation, chemoluminescence (mV) as % of the control ([4]; time 10 minutes): 29%; activity at 25 µM [5]: 30%"
